What was measured:
TrkA kinase = TrkA kinase (Homo sapiens, UniProt P04629); assay: TrkA kinase biochemical activity assay (AlphaScreen); details: 100 μM ATP; read-out: Biochemical Inhibition IC50 TrkA
How it was run: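 IC50 values come from AlphaScreen PY20/streptavidin bead signal versus compound concentration. Kinase reaction: 1 ng/well TrkA, 100 μM ATP, 30 nM biotin-(E4Y)10 substrate, Mn2+-containing Hepes buffer pH 7.5, 5% DMSO, 40 min, room temperature; TrkC assayed by the same approach.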

CYP3A4(BFC) = CYP3A4(BFC) (Homo sapiens, UniProt P08684); assay: CYP3A4(BFC) inhibition; type: in vitro ADME; details: CYP3A4, substrate BFC; read-out: Cyp IC50 3A4(BFC)
How it was run: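 This fluorescence assay tracks how test compounds reduce CYP3A4 turnover of BFC, with enzyme and substrate from BD Biosciences. A 10-point 1:1 dilution series in cofactor mix (1.3% NADPH Regeneration Solution A, 1.04% Solution B, 5% acetonitrile, 0.05% DMSO) was dispensed at 10 μL into 384 well plates, preincubated 10 minutes at 37° C, then incubated 30 min and read on a Tecan Safire 2.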

Chain of TrkA kinase (P04629 33-796): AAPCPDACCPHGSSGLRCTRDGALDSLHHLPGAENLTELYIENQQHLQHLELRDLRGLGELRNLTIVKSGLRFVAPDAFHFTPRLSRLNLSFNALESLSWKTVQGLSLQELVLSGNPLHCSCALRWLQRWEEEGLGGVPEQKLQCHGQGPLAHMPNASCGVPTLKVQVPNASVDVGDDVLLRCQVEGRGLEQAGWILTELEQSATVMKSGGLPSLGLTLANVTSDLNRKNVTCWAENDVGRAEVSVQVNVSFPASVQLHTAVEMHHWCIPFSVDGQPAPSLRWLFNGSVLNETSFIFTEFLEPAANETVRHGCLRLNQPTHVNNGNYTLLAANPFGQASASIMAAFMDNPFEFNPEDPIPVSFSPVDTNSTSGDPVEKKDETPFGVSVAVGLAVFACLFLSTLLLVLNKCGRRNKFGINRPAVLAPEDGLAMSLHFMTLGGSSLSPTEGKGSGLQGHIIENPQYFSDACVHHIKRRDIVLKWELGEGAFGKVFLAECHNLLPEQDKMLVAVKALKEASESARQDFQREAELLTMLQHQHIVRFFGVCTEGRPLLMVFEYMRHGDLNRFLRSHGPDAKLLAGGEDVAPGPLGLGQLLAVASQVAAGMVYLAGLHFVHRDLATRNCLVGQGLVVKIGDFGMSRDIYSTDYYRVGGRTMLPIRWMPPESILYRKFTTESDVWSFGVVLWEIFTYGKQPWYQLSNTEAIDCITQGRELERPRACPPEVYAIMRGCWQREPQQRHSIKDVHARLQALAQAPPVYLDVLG
Chain of CYP3A4(BFC) (P08684 whole entry): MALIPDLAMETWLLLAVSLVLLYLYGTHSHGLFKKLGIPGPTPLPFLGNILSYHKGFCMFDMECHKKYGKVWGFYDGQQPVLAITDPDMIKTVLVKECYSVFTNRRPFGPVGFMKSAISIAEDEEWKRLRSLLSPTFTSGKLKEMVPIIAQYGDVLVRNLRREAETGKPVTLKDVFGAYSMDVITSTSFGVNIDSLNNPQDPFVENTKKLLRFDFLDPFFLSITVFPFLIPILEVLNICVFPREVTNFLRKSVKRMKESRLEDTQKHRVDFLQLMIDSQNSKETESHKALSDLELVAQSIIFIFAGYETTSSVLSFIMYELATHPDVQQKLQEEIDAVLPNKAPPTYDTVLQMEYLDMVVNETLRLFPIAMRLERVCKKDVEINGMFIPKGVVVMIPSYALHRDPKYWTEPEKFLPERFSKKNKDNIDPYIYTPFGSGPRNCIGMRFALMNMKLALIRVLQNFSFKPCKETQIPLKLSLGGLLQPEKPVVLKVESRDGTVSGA

SMILES	IC50 (TrkA kinase) [µM]	IC50 (CYP3A4(BFC)) [µM]
CCc1ccc(Nc2ccc(C(=O)c3c[nH]c4ncnc(C5CC5)c34)c(F)n2)cn1 [Compound P-4029, (4-Cyclopropyl-7H-pyrrolo[2,3-d]pyrimidin-5-yl)-[6-(6-ethyl-pyridin-3-ylamino)-2-fluoro-pyridin-3-yl]-methanone]	< 0.01	> 10
Cc1ccc(Nc2ccc(Cc3c[nH]c4ncnc(C5CC5)c34)c(F)n2)cn1 [Compound P-4030, [5-(4-Cyclopropyl-7H-pyrrolo[2,3-d]pyrimidin-5-ylmethyl)-6-fluoro-pyridin-2-yl]-(6-methyl-pyridin-3-yl)-amine]	< 0.1	> 10
CCn1cc(Nc2ccc(Cc3c[nH]c4ncnc(C5CC5)c34)c(F)n2)cn1 [Compound P-4036, [5-(4-Cyclopropyl-7H-pyrrolo[2,3-d]pyrimidin-5-ylmethyl)-6-fluoro-pyridin-2-yl]-(1-ethyl-1H-pyrazol-4-yl)-amine]	< 0.1	5 to 10
Fc1nc(NC2CCC(F)(F)CC2)ccc1Cc1c[nH]c2ncnc(NCC(F)(F)F)c12 [Compound P-4128, 5-[[6-[(4,4-difluorocyclohexyl)amino]-2-fluoro-3-pyridyl]methyl]-N-(2,2,2-trifluoroethyl)-7H-pyrrolo[2,3-d]pyrimidin-4-amine]	< 1	> 10

Now from value to compound:

IC50 (TrkA kinase) [µM]	IC50 (CYP3A4(BFC)) [µM]	SMILES
< 0.1	< 5	CCOc1ncnc2[nH]cc(C(=O)c3ccc(Nc4ccc(OC)nc4)nc3F)c12 [Compound P-4025, (4-Ethoxy-7H-pyrrolo[2,3-d]pyrimidin-5-yl)-[2-fluoro-6-(6-methoxy-pyridin-3-ylamino)-pyridin-3-yl]-methanone]
< 0.01	> 10	CCc1ccc(Nc2ccc(Cc3c[nH]c4ncnc(C5CC5)c34)c(F)n2)cn1 [Compound P-4028, [5-(4-Cyclopropyl-7H-pyrrolo[2,3-d]pyrimidin-5-ylmethyl)-6-fluoro-pyridin-2-yl]-(6-ethyl-pyridin-3-yl)-amine]
< 0.1	> 10	Cc1ccc(Nc2ccc(C(=O)c3c[nH]c4ncnc(C5CC5)c34)c(F)n2)cn1 [Compound P-4031, (4-Cyclopropyl-7H-pyrrolo[2,3-d]pyrimidin-5-yl)-[2-fluoro-6-(6-methyl-pyridin-3-ylamino)-pyridin-3-yl]-methanone]
< 0.1	5 to 10	CCn1cc(Nc2ccc(C(=O)c3c[nH]c4ncnc(C5CC5)c34)c(F)n2)cn1 [Compound P-4037, (4-Cyclopropyl-7H-pyrrolo[2,3-d]pyrimidin-5-yl)-[6-(1-ethyl-1H-pyrazol-4-ylamino)-2-fluoro-pyridin-3-yl]-methanone]
< 1	< 5	Fc1nc(NC2CCC(F)(F)CC2)ccc1Cc1c[nH]c2ncnc(NC3CC3)c12 [Compound P-4129, N-cyclopropyl-5-[[6-[(4,4-difluorocyclohexyl)amino]-2-fluoro-3-pyridyl]methyl]-7H-pyrrolo[2,3-d]pyrimidin-4-amine]
< 0.01	< 5	Fc1nc(Nc2ccc(C3CC3)nc2)ccc1Cc1c[nH]c2ncnc(NCC(F)(F)F)c12 [Compound P-4130, 5-[[6-[(6-cyclopropyl-3-pyridyl)amino]-2-fluoro-3-pyridyl]methyl]-N-(2,2,2-trifluoroethyl)-7H-pyrrolo[2,3-d]pyrimidin-4-amine]

— patent publication US8901118B2, “Compounds and methods for kinase modulation, and indications therefor” (Plexxikon Inc., priority 2010, dated 2014)
